According to ChEMBL document CHEMBL3507680, “University of Dundee, Gates Library screen for HepG2 cell viability”:

Assay: Human HepG2 cell viability assay in 384 well format
Format: toxicity, cell-based
Parameters: dose 125 nL, time 70.5 hour; concentration not given beside the values
Details: HepG2 cells, read-out: Inhibition

| SMILES | cytotoxicity at 70.5 h [%] |
| --- | --- |
| COC(CNC(=O)c1cn(C)nn1)c1ccc(C)s1 (stereo not drawn) | -6.13 |
| COc1nn(C)cc1C(=O)NCC(OC)c1ccccc1C (stereo not drawn) | -3.02 |
| COC(CNC(=O)c1cn(C)nn1)c1ccccc1C (stereo not drawn) | -3.6 |
| CCC(CNC(C)=O)(OC)c1ccccc1 (stereo not drawn) | -6.06 |
| O=C(CC1CCCC1)N1CCN(c2ccc(-n3cncn3)nn2)CC1 | -7.71 |
| O=C(O)c1ncccc1N1CCCCC1 | -14.8 |
| CCN1C(=O)C[C@@H]2[C@@H]1CCN2S(=O)(=O)c1cccc(C)c1 | 12.1 |
| CC(C)C(=O)N1CCC(C2C(=O)Nc3ccccc32)CC1 (stereo not drawn) | -16.1 |
| COCCN1C[C@H]2CCN(C(=O)Nc3ccccc3C)CC[C@H]2S1(=O)=O | -11.5 |
| CCN1CCC2(CN(C(C)=O)CC23CCN(C(=O)N(C)C)CC3)C1=O (stereo not drawn) | -9.48 |
| Cc1cc(C(=O)N[C@H]2CC[C@@]3(CCC(=O)N3)CC2)no1 | -6.09 |
| COc1ccc(CN2C[C@@H]3CN(CCO)C[C@@H]3C2=O)cc1 | -11.6 |
| COC1COC2(CCN(Cc3ccco3)CC2)C1 (stereo not drawn) | -8.76 |
| c1cnc(N2C[C@H]3CCC[C@@H](CN4CCCC4)[C@H]3C2)nc1 | 22.9 |
| CCn1c2c(ccc1=O)CC(N)CC2 (stereo not drawn) | 15.2 |
| CCN1CCNC(=O)C12CCN(S(=O)(=O)c1ccc(F)cc1)CC2 | 0.587 |
| CCN1CCNC(=O)C12CCN(S(=O)(=O)c1ccccc1)CC2 | -6.26 |
| O=C(NCC1CC1)C1CCC2(CCNCC2)C1 (stereo not drawn) | -2.15 |
| CCN1CCNC(=O)C12CCN(S(=O)(=O)c1ccc(OC)cc1)CC2 | -7.91 |
| O=C(NC1CC1)N1CCCC2(CCNC2=O)C1 (stereo not drawn) | -3.68 |
| O=C1CCC2(CCCN(C(=O)Cc3cccs3)C2)N1 (stereo not drawn) | -5 |
| NC1CCc2c(ccc(=O)n2Cc2ccncc2)C1 (stereo not drawn) | 2.44 |

| SMILES | cytotoxicity at 70.5 h [%] |
| --- | --- |
| CC(C)N1CCc2[nH]nc(C(=O)N3CCCC3C)c2C1 (stereo not drawn) | -4.03 |
| CCOCC(=O)N1C[C@H]2CN(CC3CC3)C(=O)[C@H]2C1 | -5.22 |
| Cn1ccc(C(=O)N2CCCCC23CC(=O)N(Cc2ccccc2)C3)n1 (stereo not drawn) | 1.38 |
| Cc1nc(CN2CCC3(CCN(Cc4cnn(C)c4)C3)C2=O)cs1 (stereo not drawn) | -13.8 |
| CCO[C@@H]1CC[C@H]2[C@H]1OCCN2Cc1ccc(F)cc1 | -16.2 |
| O=C(c1ccc[nH]1)N1Cc2nccn2CC(Cn2ncccc2=O)C1 (stereo not drawn) | -6.79 |
| CC(=O)N1CCC2(CC1)CC(NC(=O)N(C)C)c1cc(C)ccc12 (stereo not drawn) | -5.6 |
| C1CC(CN2CC[C@@H]3O[C@@H](c4nnc(C5CC5)o4)C[C@H]3C2)CCO1 | -9.09 |
| O=C(NCC1CC1)c1cc2c(s1)CCN2C(=O)c1cccnc1 | -8.04 |
| CO[C@@H]1CC[C@H]2[C@H]1OCCN2S(=O)(=O)C1CC1 | -9.16 |
| Cn1cc(C2CC(=O)NC23CCN(C(=O)NC2CC2)CC3)cn1 (stereo not drawn) | -6.56 |
| CN(C)C(=O)N1CCC2(C1)CN(c1cccnc1)C(=O)CN2C (stereo not drawn) | -7.38 |
| O=C(NCC1CC1)[C@@H]1C[C@@H]2CCN(Cc3ccoc3)C[C@@H]2O1 | 2.93 |
| O=C(NCC1CCCO1)c1nc2c(s1)CCCN2c1ncccn1 (stereo not drawn) | 24.3 |
| O=C(c1cnccn1)N1CCN(Cc2cccnc2)c2ncccc2C1 | -8.24 |
| CN(Cc1cccnc1)[C@@H]1CN(Cc2ccccn2)[C@@H]2CCCO[C@H]12 | -2.2 |
| Cc1cccc(CN2C(=O)CCC23CCN(Cc2nccn2C)CC3)n1 | -4.21 |
| Cc1ccc(CN2CC[C@H]3OCC[C@@]3(C(=O)N3CCCO3)C2)s1 | -5.95 |
| CC1c2ncc(Cn3cncn3)n2CCN1C(=O)N(C)C (stereo not drawn) | -7.73 |
| CC(C)Nc1nc(N2CCCC2)nc2c1CN(c1ncc(F)cn1)CC2 | -7.8 |
| O=C1CC2(CCN(c3nncs3)C2)CN1c1ccccc1 (stereo not drawn) | -1.13 |
| Cn1cc(CN2CC[C@@H]3O[C@H](C(=O)N4CCOCC4)C[C@@H]32)cn1 | -5.63 |

| SMILES | cytotoxicity at 70.5 h [%] |
| --- | --- |
| O=C(C1CCC1)N1CCC2(CCNCC2)C1 | 13.3 |
| CC(C)COC(=O)N1CCC2(CCNC2)C1 (stereo not drawn) | -10.5 |
| CCOC(=O)N1CCCC2(CCCNC2)C1 (stereo not drawn) | -1.34 |
| CCCC(=O)N1CCc2c(CNS(C)(=O)=O)cncc2C1 | -8.58 |
| CS(=O)(=O)NCc1cncc2c1CCN(C(=O)c1cccnc1)C2 | -5.3 |
| CO[C@H]1CCN(C2CCOCC2)C[C@@H]1Cc1ccccc1 | -7.39 |
| CO[C@@H]1CCN(C2CCOCC2)C[C@@H]1Cc1ccccc1 | -11.8 |
| CN(C)CCN1C(=O)C[C@@H]2[C@@H]1CCN2S(=O)(=O)c1ccccc1 | -12.7 |
| O=C1[C@@H]2CN(C3CCOCC3)C[C@H]2CCN1CC1CC1 | -10.2 |
| CN(C)C(=O)CN1CC[C@H]2CN(S(C)(=O)=O)C[C@@H]2C1=O | -3.84 |
| CCN1CCC2(CN(C(=O)N(C)C)CC23CCNCC3)C1=O (stereo not drawn) | -8.8 |
| O=C(C1CCC2(CCN(CC3CCOCC3)CC2)O1)N1CCCC1 (stereo not drawn) | 4.83 |
| CN(C)C(=O)N1CC2(CCN(CC3CC3)CC2)c2cc(F)ccc21 | 19.9 |
| O=C1CC[C@]2(CC[C@@H](NCc3ccc4c(c3)OCO4)CC2)N1 | 19.9 |
| O=C(C1CC1)N1CC2(CCN(CC3CC3)CC2)c2cc(F)ccc21 | 25.9 |
| O=C1CC[C@]2(CC[C@@H](NCc3ccoc3)CC2)N1 | -2.86 |
| O=C(C1CC1)N1CC2(CCNCC2)c2cc(F)ccc21 | -11.1 |
| CCN(C)C1COC2(CCN(C(=O)c3cccc(Cl)c3)CC2)C1 (stereo not drawn) | -6.18 |
| O=C(C[C@H]1[C@H]2CN(Cc3ccsc3)C[C@@H]12)N1CCCC1 | -1.9 |
| Cc1cccc(CN2CCc3[nH]nc(C(=O)N(C)C)c3C2)n1 | 33.4 |
| O=C1CCC2(CCCN(C(=O)Cc3cccnc3)C2)N1 (stereo not drawn) | -6.68 |
| Cc1ccc(CN2C(=O)CC[C@]23CC[C@@H](NC2CCOC2)CC3)cc1 (stereo partly drawn) | -1.41 |

| SMILES | cytotoxicity at 70.5 h [%] |
| --- | --- |
| COc1ccc(CN[C@H]2CC[C@@]3(CCC(=O)N3)CC2)cc1 | -6.23 |
| CNC(=O)C1CCC2(CCNCC2)C1 (stereo not drawn) | -3.71 |
| CO[C@@H]1CC[C@H]2[C@H]1OCCN2Cc1ccc(F)c(F)c1 | -9.19 |
| O=C(N1CCCC1)N1Cc2nccn2CC(COc2cccnc2)C1 (stereo not drawn) | -9.49 |
| CO[C@@H]1CC[C@H]2[C@H]1OCCN2Cc1ccc(F)cc1 | -9.94 |
| Cc1nc(CN2CCCC3(CCN(c4cnn(C)c4)C3=O)C2)cs1 (stereo not drawn) | -11.6 |
| Cn1ccc(C(=O)N2C[C@@H]3OCCN(c4ncccn4)[C@@H]3C2)n1 | -12.1 |
| COc1ccc(CN2CC[C@@H]3[C@H]2CCC(=O)N3c2cnn(C)c2)cc1 | 5.08 |
| O=c1cccnn1CC1CN(CC2CCCC2)Cc2nccn2C1 (stereo not drawn) | -5.89 |
| Cc1ccc2c(c1)C(NC(=O)N(C)C)CC21CCN(C(C)C)CC1 (stereo not drawn) | -5.2 |
| c1cncc(N2CCC3(CCCN(c4ccncc4)C3)CC2)c1 | -6.14 |
| COCCNC(=O)[C@H]1C[C@@H]2CCN(c3ccncn3)C[C@H]2O1 | 1.69 |
| Cc1ccc(CN2CC[C@H]3OCC[C@@]3(C(=O)N3CCCO3)C2)o1 | 2.99 |
| O=C(c1cnccn1)N1CCCC2(CCN(Cc3ccsc3)C2)C1 (stereo not drawn) | -5.33 |
| O=C(c1cnccn1)N1CC2(CCN(Cc3ccsc3)C2)C1 | -4.05 |
| Cc1ccsc1CN1CC[C@H]2OCC[C@@]2(C(=O)N2CCCO2)C1 | 22.9 |
| O=C(N1CCCO1)[C@@]12CCO[C@@H]1CCN(Cc1cccs1)C2 | 34.4 |
| CCOCC1CN(C(=O)c2cnoc2C)Cc2cnn(C)c21 (stereo not drawn) | -12.5 |
| CC(=O)NCC(=O)N1CCOC2(CCCN(c3cccnc3)C2)C1 (stereo not drawn) | 14.8 |
| Cc1nc(N(C)C)nc2c1COCC21CCN(CC2CC2)C1 (stereo not drawn) | 5.56 |
| O=C([C@@H]1C[C@H]2[C@H](CCN2Cc2nccs2)O1)N1CCOCC1 | -8.03 |
| Cc1ccc(CN2CCC3(CC2)C(=O)N(C)c2ccccc23)s1 | 0.079 |

| SMILES | cytotoxicity at 70.5 h [%] |
| --- | --- |
| CCN1CCN(C)C2(CCN(Cc3ccc(C)o3)CC2)C1=O | -7.08 |
| c1cc(CN2CCC3(CCOCC3COCC3CC3)CC2)ccn1 (stereo not drawn) | 0.537 |
| Cc1ccc(CN2CCc3[nH]nc(C(=O)N(C)C)c3C2)s1 | 3.17 |
| Cc1cc(C(=O)N2CCC3(C2)CN(c2cccnc2)C(=O)CN3C)[nH]n1 (stereo not drawn) | -10.2 |
| Cc1cccc(CN2CCc3cc(C(=O)O)c(N(C)C)nc3CC2)n1 | -5.66 |
| CC(C)Nc1nc2c(cc1C(=O)O)CCN(Cc1ccsc1)CC2 | -6.73 |
| O=C(NCc1cccnc1)[C@H]1C[C@@H]2CCN(c3ccncn3)C[C@H]2O1 | -5.01 |
| CCCN1CC[C@@H]2OC[C@H](C(=O)Nc3cccnc3)C[C@@H]2C1 | 2.64 |
| CN(Cc1cccnc1)[C@@H]1CN(C(=O)CC2CC2)[C@@H]2CCCO[C@H]12 | 0.0586 |
| COCCN1CCC2(CCC(=O)N2Cc2csc(C)n2)CC1 | -7.09 |
| O=C(N1CCCC1)N1CCN(Cc2cccnc2)c2ncccc2C1 | -10.8 |
| O=C(CC1CC1)N1CCN(Cc2cccnc2)c2ncccc2C1 | -9.33 |
| Cc1nc(CN2C(=O)CCC23CCN(Cc2ccccn2)CC3)cs1 | -6.85 |
| c1ccc(CN2CC[C@H]3CO[C@H](CNc4ncccn4)[C@H]3C2)cc1 | -5.27 |
| Cn1ccnc1CN1CCC2(CCC(=O)N2CCN2CCCC2)CC1 | -8.64 |
| CN(C)CCOCc1nnc2n1CCN(Cc1ccco1)CC2 | -4.62 |
| CC(C)COCC1CN(Cc2ccc3c(c2)OCO3)Cc2ncn(C)c21 (stereo not drawn) | 45.7 |
| c1cnc(NC[C@H]2OC[C@@H]3CCN(Cc4cccnc4)C[C@@H]32)nc1 | -12.6 |
| c1cnc(NC[C@H]2OC[C@@H]3CCN(Cc4nccs4)C[C@@H]32)nc1 | 21.4 |
| c1ccc(CN2CC[C@@H]3[C@@H](CO[C@@H]3CNc3ncccn3)C2)nc1 | -7.29 |
